Data: patent publication US8802597B2, “Herbicidal pyrimidines” (E I du Pont de Nemours and Company, priority 2003, dated 2014)
Like-named read-outs stand apart in the source and are kept apart here.

Tests used:
Assay in all cases: Test C pre/postemergence
Assay type in all cases: in vivo
[1] = tested on: Surinam grass (Brachiaria decumbens); details: Urochloa decumbens; for pest or weed control at 8 g/ha: 8 g ai/ha; for pest or weed control at 16 g/ha: 16 g ai/ha; for pest or weed control at 31 g/ha: 31 g ai/ha; for pest or weed control at 62 g/ha: 62 g ai/ha
Procedure, shortened: (§1)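 We sprayed seeded pots preemergence and 2–18 cm seedlings postemergence with test chemicals in a non-phytotoxic solvent mixture including surfactant. Greenhouse plants were visually compared with untreated controls at 12 to 14 days and scored 0 (no effect) to 100 (complete control).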

soybean (Glycine max) = details: Glycine max; for plant injury at 8 g/ha: 8 g ai/ha; for plant injury at 16 g/ha: 16 g ai/ha; for plant injury at 31 g/ha: 31 g ai/ha; for plant injury at 62 g/ha: 62 g ai/ha
Procedure, shortened: as §1

[2] = tested on: common (oilseed) sunflower (Helianthus annuus); details: Helianthus annuus, pre-emergence, Preemergence, read-out: Plant response rating, Sunflower
Procedure, shortened: as §1

[3] = tested on: crabgrass (Digitaria sanguinalis); details: Digitaria sanguinalis; for pest or weed control at 8 g/ha: 8 g ai/ha; for pest or weed control at 16 g/ha: 16 g ai/ha; for pest or weed control at 31 g/ha: 31 g ai/ha; for pest or weed control at 62 g/ha: 62 g ai/ha
Procedure, shortened: as §1

[4] = tested on: cocklebur (Xanthium strumarium); details: Xanthium strumarium; for pest or weed control at 8 g/ha: 8 g ai/ha; for pest or weed control at 16 g/ha: 16 g ai/ha; for pest or weed control at 31 g/ha: 31 g ai/ha; for pest or weed control at 62 g/ha: 62 g ai/ha
Procedure, shortened: as §1

kochia (Kochia scoparia) = details: Bassia scoparia; for pest or weed control at 8 g/ha: 8 g ai/ha; for pest or weed control at 16 g/ha: 16 g ai/ha; for pest or weed control at 31 g/ha: 31 g ai/ha; for pest or weed control at 62 g/ha: 62 g ai/ha
Procedure, shortened: as §1

[5] = tested on: johnsongrass (Sorghum halepense); details: Sorghum halepense; for pest or weed control at 8 g/ha: 8 g ai/ha; for pest or weed control at 16 g/ha: 16 g ai/ha; for pest or weed control at 31 g/ha: 31 g ai/ha; for pest or weed control at 62 g/ha: 62 g ai/ha
Procedure, shortened: as §1

[6] = tested on: lambsquarters (Chenopodium album); details: Chenopodium album; for pest or weed control at 8 g/ha: 8 g ai/ha; for pest or weed control at 16 g/ha: 16 g ai/ha; for pest or weed control at 31 g/ha: 31 g ai/ha; for pest or weed control at 62 g/ha: 62 g ai/ha
Procedure, shortened: as §1

[7] = tested on: giant foxtail (Setaria faberii); details: Setaria faberi; for pest or weed control at 8 g/ha: 8 g ai/ha; for pest or weed control at 31 g/ha: 31 g ai/ha; for pest or weed control at 62 g/ha: 62 g ai/ha
Procedure, shortened: as §1

[8] = tested on: morningglory (Ipomoea coccinea); details: Ipomoea; for pest or weed control at 8 g/ha: 8 g ai/ha; for pest or weed control at 31 g/ha: 31 g ai/ha; for pest or weed control at 62 g/ha: 62 g ai/ha
Procedure, shortened: as §1

[9] = tested on: eastern black nightshade (Solanum ptycanthum); details: Solanum, pre-emergence, Preemergence, read-out: Plant response rating, Nightshade
Procedure, shortened: as §1

corn (Zea mays) = details: Zea mays; for Corn plant response rating (crop injury, 0 = no effect, 100 = complete kill) at 8 g/ha: 8 g ai/ha; for Corn plant response rating (crop injury, 0 = no effect, 100 = complete kill) at 16 g/ha: 16 g ai/ha; for Corn plant response rating (crop injury, 0 = no effect, 100 = complete kill) at 62 g/ha: 62 g ai/ha
Procedure, shortened: as §1

[10] = post-emergence, Postemergence, read-out: Plant response rating (scale of 0 to 100), Surinam Grass
[11] = pre-emergence, Preemergence, scale 0 to 100, 0 no effect, 100 complete control, read-out: Plant response rating, Surinam Grass
[12] = post-emergence, Postemergence, read-out: Plant response rating (scale of 0 to 100), Soybean
[13] = pre-emergence, Preemergence, scale 0 to 100, 0 no effect, 100 complete control, read-out: Plant response rating, Soybean
[14] = 8 g ai/ha, scale 0 to 100 (0 no effect, 100 complete control)
[15] = 16 g ai/ha, scale 0 to 100, 0 no effect, 100 complete control
[16] = 31 g ai/ha, scale 0 to 100, 0 no effect, 100 complete control
[17] = 62 g ai/ha, scale 0 to 100, 0 no effect, 100 complete control
[18] = post-emergence, Postemergence, read-out: Plant response rating (scale of 0 to 100), Crabgrass
[19] = pre-emergence, Preemergence, scale 0 to 100, 0 no effect, 100 complete control, read-out: Plant response rating, Crabgrass
[20] = post-emergence, Postemergence, read-out: Plant response rating (scale of 0 to 100), Cocklebur
[21] = pre-emergence, Preemergence, scale 0 to 100, 0 no effect, 100 complete control, read-out: Plant response rating, Cocklebur
[22] = post-emergence, Postemergence, read-out: Plant response rating (scale of 0 to 100), Kochia
[23] = pre-emergence, Preemergence, scale 0 to 100, 0 no effect, 100 complete control, read-out: Plant response rating, Kochia
[24] = post-emergence, Postemergence, read-out: Plant response rating (scale of 0 to 100), Johnsongrass
[25] = pre-emergence, Preemergence, scale 0 to 100, 0 no effect, 100 complete control, read-out: Plant response rating, Johnsongrass
[26] = post-emergence, Postemergence, read-out: Plant response rating (scale of 0 to 100), Lambsquarters
[27] = pre-emergence, Preemergence, scale 0 to 100, 0 no effect, 100 complete control, read-out: Plant response rating, Lambsquarters
[28] = post-emergence, Postemergence, read-out: Plant response rating (scale of 0 to 100), Foxtail, Giant
[29] = pre-emergence, Preemergence, scale 0 to 100, 0 no effect, 100 complete control, read-out: Plant response rating, Foxtail, Giant
[30] = post-emergence, Postemergence, read-out: Plant response rating (scale of 0 to 100), Morningglory
[31] = pre-emergence, Preemergence, scale 0 to 100, 0 no effect, 100 complete control, read-out: Plant response rating, Morningglory
[32] = post-emergence, Postemergence, read-out: Plant response rating (scale of 0 to 100), Corn
[33] = pre-emergence, Preemergence, scale 0 to 100, 0 no effect, 100 complete control, read-out: Plant response rating, Corn

## Nc1nc(-c2ccc(Br)cc2)nc(C(=O)O)c1Cl [Compound 95, 6-amino-2-(4-bromophenyl)-5-chloro-4-pyrimidinecarboxylic acid]
[1]; post-emergence, Postemergence, scale 0 to 100, read-out: Plant response rating, Surinam Grass
  pest or weed control at 8 g/ha: 55%
[1]; [10]
  pest or weed control at 16 g/ha: 65%
  pest or weed control at 31 g/ha: 70%
  pest or weed control at 62 g/ha: 75%
[1]; pre-emergence, Preemergence, scale 0 to 100 (0 no effect, 100 complete control), read-out: Plant response rating, Surinam Grass
  pest or weed control at 8 g/ha: 0%
[1]; [11]
  pest or weed control at 16 g/ha: 0%
  pest or weed control at 31 g/ha: 5%
  pest or weed control at 62 g/ha: 10%
Soybean (Glycine max); post-emergence, Postemergence, scale 0 to 100, read-out: Plant response rating, Soybean
  plant injury at 8 g/ha: 100%
Soybean (Glycine max); [12]
  plant injury at 16 g/ha: 100%
  plant injury at 31 g/ha: 100%
  plant injury at 62 g/ha: 100%
Soybean (Glycine max); pre-emergence, Preemergence, scale 0 to 100 (0 no effect, 100 complete control), read-out: Plant response rating, Soybean
  plant injury at 8 g/ha: 90%
Soybean (Glycine max); [13]
  plant injury at 16 g/ha: 90%
  plant injury at 31 g/ha: 100%
  plant injury at 62 g/ha: 100%
[2]; [14]
  pest or weed control at 8 g/ha: 5%
[2]; [15]
  pest or weed control at 16 g/ha: 40%
[2]; [16]
  pest or weed control at 31 g/ha: 95%
[2]; [17]
  pest or weed control at 62 g/ha: 100%
[3]; post-emergence, Postemergence, scale 0 to 100, read-out: Plant response rating, Crabgrass
  pest or weed control at 8 g/ha: 75%
[3]; [18]
  pest or weed control at 16 g/ha: 75%
  pest or weed control at 31 g/ha: 80%
  pest or weed control at 62 g/ha: 80%
[3]; pre-emergence, Preemergence, scale 0 to 100 (0 no effect, 100 complete control), read-out: Plant response rating, Crabgrass
  pest or weed control at 8 g/ha: 0%
[3]; [19]
  pest or weed control at 16 g/ha: 0%
  pest or weed control at 31 g/ha: 30%
  pest or weed control at 62 g/ha: 35%
[4]; post-emergence, Postemergence, scale 0 to 100, read-out: Plant response rating, Cocklebur
  pest or weed control at 8 g/ha: 100%
[4]; [20]
  pest or weed control at 16 g/ha: 100%
  pest or weed control at 31 g/ha: 100%
  pest or weed control at 62 g/ha: 100%
[4]; pre-emergence, Preemergence, scale 0 to 100 (0 no effect, 100 complete control), read-out: Plant response rating, Cocklebur
  pest or weed control at 8 g/ha: 0%
[4]; [21]
  pest or weed control at 16 g/ha: 0%
  pest or weed control at 31 g/ha: 0%
  pest or weed control at 62 g/ha: 60%
Kochia (Kochia scoparia); post-emergence, Postemergence, scale 0 to 100, read-out: Plant response rating, Kochia
  pest or weed control at 8 g/ha: 90%
Kochia (Kochia scoparia); [22]
  pest or weed control at 16 g/ha: 95%
  pest or weed control at 31 g/ha: 95%
  pest or weed control at 62 g/ha: 95%
Kochia (Kochia scoparia); pre-emergence, Preemergence, scale 0 to 100 (0 no effect, 100 complete control), read-out: Plant response rating, Kochia
  pest or weed control at 8 g/ha: 0%
Kochia (Kochia scoparia); [23]
  pest or weed control at 16 g/ha: 0%
  pest or weed control at 31 g/ha: 40%
  pest or weed control at 62 g/ha: 45%
[5]; post-emergence, Postemergence, scale 0 to 100, read-out: Plant response rating, Johnsongrass
  pest or weed control at 8 g/ha: 55%
[5]; [24]
  pest or weed control at 16 g/ha: 70%
  pest or weed control at 31 g/ha: 75%
  pest or weed control at 62 g/ha: 90%
[5]; pre-emergence, Preemergence, scale 0 to 100 (0 no effect, 100 complete control), read-out: Plant response rating, Johnsongrass
  pest or weed control at 8 g/ha: 0%
[5]; [25]
  pest or weed control at 16 g/ha: 50%
  pest or weed control at 31 g/ha: 60%
  pest or weed control at 62 g/ha: 80%
[6]; post-emergence, Postemergence, scale 0 to 100, read-out: Plant response rating, Lambsquarters
  pest or weed control at 8 g/ha: 75%
[6]; [26]
  pest or weed control at 16 g/ha: 100%
  pest or weed control at 31 g/ha: 100%
  pest or weed control at 62 g/ha: 100%
[6]; pre-emergence, Preemergence, scale 0 to 100 (0 no effect, 100 complete control), read-out: Plant response rating, Lambsquarters
  pest or weed control at 8 g/ha: 0%
[6]; [27]
  pest or weed control at 16 g/ha: 100%
  pest or weed control at 31 g/ha: 100%
  pest or weed control at 62 g/ha: 100%
[7]; post-emergence, Postemergence, scale 0 to 100, read-out: Plant response rating, Foxtail, Giant
  pest or weed control at 8 g/ha: 70%
[7]; [28]
  pest or weed control at 31 g/ha: 75%
  pest or weed control at 62 g/ha: 80%
[7]; pre-emergence, Preemergence, scale 0 to 100 (0 no effect, 100 complete control), read-out: Plant response rating, Foxtail, Giant
  pest or weed control at 8 g/ha: 0%
[7]; pre-emergence, Preemergence, 16 g ai/ha, scale 0 to 100, 0 no effect, 100 complete control, read-out: Plant response rating, Foxtail, Giant
  pest or weed control at 16 g/ha: 0%
[7]; [29]
  pest or weed control at 31 g/ha: 30%
  pest or weed control at 62 g/ha: 35%
[8]; post-emergence, Postemergence, scale 0 to 100, read-out: Plant response rating, Morningglory
  pest or weed control at 8 g/ha: 60%
[8]; [30]
  pest or weed control at 31 g/ha: 80%
  pest or weed control at 62 g/ha: 95%
[8]; pre-emergence, Preemergence, scale 0 to 100 (0 no effect, 100 complete control), read-out: Plant response rating, Morningglory
  pest or weed control at 8 g/ha: 0%
[8]; pre-emergence, Preemergence, 16 g ai/ha, scale 0 to 100, 0 no effect, 100 complete control, read-out: Plant response rating, Morningglory
  pest or weed control at 16 g/ha: 0%
[8]; [31]
  pest or weed control at 31 g/ha: 10%
  pest or weed control at 62 g/ha: 60%
[9]; [14]
  pest or weed control at 8 g/ha: 0%
[9]; [15]
  pest or weed control at 16 g/ha: 0%
[9]; [16]
  pest or weed control at 31 g/ha: 60%
[9]; [17]
  pest or weed control at 62 g/ha: 75%
Corn (Zea mays); post-emergence, Postemergence, scale 0 to 100
  Corn plant response rating (crop injury, 0 = no effect, 100 = complete kill) at 8 g/ha: 20%
Corn (Zea mays); [32]
  Corn plant response rating (crop injury, 0 = no effect, 100 = complete kill) at 16 g/ha: 20%
  Corn plant response rating (crop injury, 0 = no effect, 100 = complete kill) at 62 g/ha: 35%
Corn (Zea mays); pre-emergence, Preemergence, scale 0 to 100 (0 no effect, 100 complete control)
  Corn plant response rating (crop injury, 0 = no effect, 100 = complete kill) at 8 g/ha: 0%
Corn (Zea mays); [33]
  Corn plant response rating (crop injury, 0 = no effect, 100 = complete kill) at 16 g/ha: 0%
  Corn plant response rating (crop injury, 0 = no effect, 100 = complete kill) at 62 g/ha: 5%
Corn (Zea mays); pre-emergence, Preemergence, 31 g ai/ha, scale 0 to 100, 0 no effect, 100 complete control, read-out: Plant response rating, Corn
  Corn plant response rating (crop injury, 0 = no effect, 100 = complete kill) at 31 g/ha: 0%
